According to patent US6525059B1, “Substituted pyrazoles as p38 kinase inhibitors” (G. D. Searle & Company, priority 1998, dated 2003):

Columns and labels:
TNF alpha = assay: Mouse model of LPS-induced TNF alpha production; assay type: in vivo; details: mouse, oral, 1h before LPS, 30 mpk; read-out: mLPS 1h, 30 mpk percent inhibition
Method: TNF alpha was induced in 10-12 week old BALB/c female mice by tail vein injection with 100 ng lipopolysaccharide (from S. Typhosa) in 0.2 ml saline. One hour later mice were bled from the retroorbital sinus and TNF concentrations in serum from clotted blood were quantified by ELISA.
Efficacy was determined at each time point as percent inhibition of serum TNF levels relative to LPS injected mice that received vehicle only
wherein in the dose is milligram per kilogram (mpk) administered by oral gavage and the predose time indicates the number of hours before LPS challenge when the compound is administered.

[1] = target: T1, human GST-p38 kinase alpha (Homo sapiens, UniProt Q16539); assay: p38 kinase in vitro assay, second format, phosphorylation of EGFRP with 33P-ATP; assay type: biochemical; details: p38α in vitro, EGFRP assay procedure; read-out: p38^2 IC50
T1 construct: The coding region of the human p38a cDNA was obtained by PCR-amplification from RNA isolated from the human monocyte cell line THP.1; made in house; host or cells: E. coli DH10B
T1 sequence (Q16539 whole entry): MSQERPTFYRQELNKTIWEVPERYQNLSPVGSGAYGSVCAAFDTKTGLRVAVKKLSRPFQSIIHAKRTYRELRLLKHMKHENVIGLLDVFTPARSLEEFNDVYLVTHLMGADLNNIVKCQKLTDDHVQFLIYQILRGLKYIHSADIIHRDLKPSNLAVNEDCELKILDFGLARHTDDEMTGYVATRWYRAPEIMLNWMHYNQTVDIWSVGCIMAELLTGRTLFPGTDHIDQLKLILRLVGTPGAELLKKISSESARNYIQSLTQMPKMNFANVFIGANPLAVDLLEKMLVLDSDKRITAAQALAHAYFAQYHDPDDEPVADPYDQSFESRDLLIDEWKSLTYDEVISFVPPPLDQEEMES
How it was run: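 Activated human GST-p38α (pre-activated with GST-MKK6, 1 h, 30 °C) phosphorylates EGFR 21-mer peptide (200 μM) with 50 μM ATP plus γ-33P-ATP, pH 7.5, 60 min at room temperature. Unreacted ATP removed by AG 1×8 resin; supernatant scintillation-counted.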

TNF-α = assay: LPS stimulation of TNF production by U937 cells; assay type: cell-based, human; details: Homo sapiens, U-937, LPS-stimulated U937 cells; read-out: U937 IC50
How it was run: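 PMA-differentiated human U937 cells (20 ng/ml PMA, 24 h, then 24-48 h rest) at 2 million cells/ml, 0.1% DMSO final, stimulated with E. coli LPS (100 ng/ml final) for 4 h at 37° C. TNF-α in medium measured by ELISA; IC50 in μM.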

| Compound | IC50 [1] [nM] | IC50 (TNF-α) [nM] | inhibition in vivo at 30 mg/kg (TNF alpha) [%] |
| --- | --- | --- | --- |
| Cn1cc(-c2ccncc2)c(-c2ccc3c(c2)OCO3)n1 [Example A-231, 4-[3-(1,3-benzodioxol-5-y)-1-methyl-1H-pyrazol-4-yl]pyridine] | 174 | 322 | 94 |
| CC[C@H](C)CNc1cc(-c2c[nH]nc2-c2ccc(Cl)cc2)ccn1 [Example A-245, (S)-4-[3-(4-chlorophenyl)-1H-pyrazol-4-yl]-N-(2-methylbutyl)-2-pyridinamine] | < 1 | 33.7 | 65 |
| Cn1cc(-c2ccncc2)c(-c2ccc(C(F)(F)F)cc2)n1 [Example A-252, 4-[1-methyl-3-[4-(trifluoromethyl)phenyl]-1H-pyrazol-4-yl]pyridine] | 774 | 1200 | 75 |
| CC(Nc1cc(-c2c[nH]nc2-c2ccc(F)cc2)ccn1)c1ccc(F)cc1 (stereo not drawn) [Example A-253, N-[1-(4-fluorophenyl)ethyl]-4-[3-(4-fluorophenyl)-1H-pyrazol-4-yl]-2-pyridinamine] | < 1 | 4.4 | 61 |
| Cc1cnccc1-c1c[nH]nc1-c1ccc(F)cc1 [Example A-258, 4-[3-(4-fluorophenyl)-1H-pyrazol-4-yl]-3-methylpyridine] | 480 | 1210 | 68 |
| Cn1cc(-c2ccnc(F)c2)c(-c2ccc(F)c(F)c2)n1 [Example A-260, 4-[3-(3,4-difluorophenyl)-1-methyl-1H-pyrazol-4-yl]-2-fluoropyridine] | 230 | 1280 | 79 |
| Cn1cc(-c2ccnc(CCc3ccc(F)cc3)c2)c(-c2ccc(F)cc2)n1 [Example A-262, 2-[2-(4-fluorophenyl)ethyl]-4-[3-(4-fluorophenyl)-1-methyl-1H-pyrazol-4-yl]pyridine] | < 100 | 327 | 45 |
| Fc1ccc(-c2n[nH]cc2-c2ccnc(NCCn3ccnc3)c2)cc1 [Example A-268, 4-[3-(4-fluorophenyl)-1H-pyrazol-4-yl]-N-[2-(1H-imidazol-1-yl)ethyl]-2-pyridinamine] | < 100 | 7.4 | 11 |
| OCCn1cc(-c2ccnc(/C=C/c3ccc(F)cc3)c2)c(-c2ccc(F)cc2)n1 [Example A-270, (E)-3-(4-fluorophenyl)-4-[2-[2-(4-fluorophenyl)ethenyl]-4-pyridinyl]-1H-pyrazole-1-ethanol] | 15 | 347 | 53 |

The next lines start with results.

| IC50 [1] [nM] | IC50 (TNF-α) [nM] | Compound | inhibition in vivo at 30 mg/kg (TNF alpha) [%] |
| --- | --- | --- | --- |
| 93 | 87 | FC(F)(F)c1cccc(-c2n[nH]cc2-c2ccncc2)c1 [Example A-237, 4-[3-[3-(trifluoromethyl)phenyl]-1H-pyrazol-4-yl]pyridine] | 60 |
| 170 | 757 | Cc1cnccc1-c1cn(C)nc1-c1ccc(F)cc1 [Example A-259, 4-[3-(4-fluorophenyl)-1-methyl-1H-pyrazol-4-yl]-3-methylpyridine] | 62 |
| 8 | 254 | CN(C)CCn1cc(-c2ccncc2)c(-c2ccc(F)cc2)n1 [Example A-261, 3-(4-fluorophenyl)-N,N-dimethyl-4-(4-pyridinyl)-1H-pyrazole-1-ethanamine] | 92 |
| < 100 | 602 | Fc1ccc(-c2n[nH]cc2-c2ccnc(-c3c[nH]nc3-c3ccc(F)cc3)c2)cc1 [Example A-265, 2,4-bis[3-(4-fluorophenyl)-1H-pyrazol-4-yl]pyridine] | 32 |
| 430 | 2670 | OCCn1cc(-c2ccnc(F)c2)c(-c2ccc(F)cc2)n1 [Example A-267, 3-(4-fluorophenyl)-4-(2-fluoro-4-pyridinyl)-1H-pyrazole-1-ethanol] | 80 |
